Experimental data published in patent publication US20160207906A1, “NOVEL 2,6-DIAMINOPYRIMIDINE DERIVATIVE” (CARNA BIOSCIENCES, INC., priority 2013, published 2016).
“Also recorded” adds a separate entry of the source.

Test system: anti-IgM antibody BCR stimulation-induced intracellular calcium influx in Ramos cells
Assay: Inhibition test on the change of Ramos intracellular calcium ion
Format: cell-based
Details: Fluo-8NW, anti-IgM antibody 2.0 μg/mL
Experimental: The intracellular BTK inhibition by the compounds of the present invention was verified by measuring the effects of the compounds of the present invention on “anti-IgM antibody BCR stimulation-induced intracellular calcium influx”.
One day before measurement, the Ramos cells were cultured as being suspended again at a cell density of 1.0×10^6 cells/mL in a fresh growth medium (growth medium as used in Test Example 2), and the cells were recovered next day by centrifugation and washed with RPMI-1640 medium supplemented with 5% penicillin-streptomycin (Nacalai Tesque, Inc.) (Medium 1). These cells were suspended again at a cell density of 2.0×10^6 cells/mL in RPMI-1640 medium supplemented with 1% Ultra Low IgG FBS (GIBCO, #16250) and 5% penicillin-streptomycin (Nacalai Tesque, Inc.) (Medium 2), and thereafter each 100 μL of the cell suspension was added to each well of a Poly Lysine-coated microplate (BD BioCoat™, #356692), centrifuged (700 rpm, 3 minutes) and then incubated for 1 hour in a 5% CO2 incubator at 37° C. […]
The Ramos intracellular calcium ion concentration was measured as a fluorescent intensity of the calcium indicator Fluo-8NW using a microplate reader (SynergyH1) (Ex/Em=490/525 nm). […]

With `Nc1cc(-c2cccc(-n3ccc4cc(C5CC5)cc(F)c4c3=O)c2CO)nc(Nc2ccc(N3CCOCC3)cc2)n1` [Example 1, 2-(3-{6-Amino-2-[(4-morpholinophenyl)amino]pyrimidin-4-yl}-2-(hydroxymethyl)phenyl)-6-cyclopropyl-8-fluoroisoquinolin-1 (2H)-one] as the compound, how does the “inhibition of anti-IgM antibody BCR stimulation-induced intracellular calcium ion variation (FIG. 1)” value read?
The value was “in a concentration-dependent manner from a low concentration; also recorded: inhibit the flux of calcium into the cells”.

With `Cn1cc(Nc2nc(N)cc(-c3cccc(-n4ccc5cc(C6CC6)cc(F)c5c4=O)c3CO)n2)cn1` [Example 2, 2-(3-{6-Amino-2-[ (1-methyl-1H-pyrazol-4-yl)amino]pyrimidin-4-yl}-2-(hydroxymethyl)phenyl)-6-cyclopropyl-8-fluoroisoquinolin-1 (2H)-one] as the compound, how does the “inhibition of anti-IgM antibody BCR stimulation-induced intracellular calcium ion variation (FIG. 1)” value read?
Its value is “in a concentration-dependent manner from a low concentration; also recorded: inhibit the flux of calcium into the cells”.

Biological target: T1, Dephosphorylated BTK (Homo sapiens, UniProt Q06187)
T1 construct: purchased Carna Biosciences, Inc
T1 sequence (Q06187 whole entry): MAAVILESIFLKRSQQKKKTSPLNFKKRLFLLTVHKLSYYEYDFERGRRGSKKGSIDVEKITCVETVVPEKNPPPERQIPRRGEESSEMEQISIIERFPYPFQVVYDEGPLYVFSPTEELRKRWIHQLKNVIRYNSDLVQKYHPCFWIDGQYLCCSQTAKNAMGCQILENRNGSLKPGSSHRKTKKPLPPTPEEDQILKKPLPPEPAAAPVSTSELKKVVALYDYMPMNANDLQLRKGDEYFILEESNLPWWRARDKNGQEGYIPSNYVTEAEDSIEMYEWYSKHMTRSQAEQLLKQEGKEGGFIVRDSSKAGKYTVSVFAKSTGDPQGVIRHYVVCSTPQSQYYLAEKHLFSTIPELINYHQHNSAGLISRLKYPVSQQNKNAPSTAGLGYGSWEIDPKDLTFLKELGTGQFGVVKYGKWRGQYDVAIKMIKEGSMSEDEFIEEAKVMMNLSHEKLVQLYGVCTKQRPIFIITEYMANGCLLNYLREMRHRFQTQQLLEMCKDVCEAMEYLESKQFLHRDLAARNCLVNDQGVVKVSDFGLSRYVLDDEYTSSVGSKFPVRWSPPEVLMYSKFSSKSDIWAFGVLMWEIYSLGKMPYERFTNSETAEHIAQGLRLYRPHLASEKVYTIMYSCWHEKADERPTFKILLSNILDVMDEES
Assay: BTK activity inhibition test (mobility shift assay, dephosphorylated BTK)
Format: biochemical
Details: 200 μM ATP in substrate mixture, 1 hour at room temperature
Experimental: Dephosphorylated BTK was obtained by adding A protein phosphatase (manufactured by New England BioLabs Inc., Code No. P0753S) and MnCl2 at 10 U/μg and 2 mM, respectively to biotinylated BTK protein BTN-BTK (manufactured by Carna Biosciences, Inc.) enzyme solution, reacting the mixture at 4° C. overnight, and removing of A protein phosphatase by anti DYKDDDDK-tag antibody agarose gel chromatography, followed by buffer exchange using a 10DG Desalting Column.
The kinase activity was measured using QuickScout Screening Assist (trade mark) MSA (commercially available kit manufactured by Carna Biosciences, Inc.) by mobility shift assay (MSA) method. The substrate of the kinase reaction was an FITC-labeled SRCtide peptide included in the kit. An assay buffer [20 mM HEPES, 0.01% Triton X-100 (Trade mark), 2 mM dithiothreitol, pH7.5] was used and adjusted at 4 μM substrate, 20 mM MgCl2 and 200 μM ATP to obtain a substrate mixture solution. The enzyme solution was also prepared by diluting the dephosphorylated BTK to 0.6 nM using the assay buffer. The 10 mM solution of the test compound in DMSO was further diluted with DMSO to 10 levels of the concentration (0.00003 mM, 0.0001 mM, 0.0003 mM, 0.001 mM, 0.003 mM, 0.01 mM, 0.03 mM, 0.1 mM, 0.3 mM, 1 mM), each of which was subjected to a 25-fold dilution with the assay buffer to obtain the drug solutions (4% DMSO solutions), 5 μL of the drug solution or a control solution (4% DMSO-assay buffer), 5 μL of the substrate mixture solution, and 10 μL of the enzyme solution were mixed in the wells of a polypropylene 384-well plate and allowed to react at room temperature for 1 hour, and then quenched by adding 60 μL of the termination buffer included in the kit. Subsequently, the quantities of the substrates (S) and the phosphorylated substrate (P) in the reaction solution were measured using LabChip EZ Reader II system (manufactured by Caliper Life Sciences) according to the protocol of the assay kit.
The heights of the peaks of the isolated substrate and the phosphorylated substrate were represented as S and P, respectively, and a blank which contained the assay buffer instead of the enzyme solution was also measured.
The inhibition rate (%) of the test compound was calculated according to the following equation.
Inhibition rate (%)=(1−(C−A)/(B−A))×100
wherein, A, B and C represent P/(P+S) of the blank well, P/(P+S) of the control well and P/(P+S) of the compound-containing well, respectively.
The IC50 value was calculated via a regression analysis of the inhibition rate (%) and the test compound concentration (logarithmic value).

With `Nc1cc(-c2cccc(-n3ccc4cc(C5CC5)cc(F)c4c3=O)c2CO)nc(Nc2ccc(N3CCOCC3)cc2)n1` [Example 1, 2-(3-{6-Amino-2-[(4-morpholinophenyl)amino]pyrimidin-4-yl}-2-(hydroxymethyl)phenyl)-6-cyclopropyl-8-fluoroisoquinolin-1 (2H)-one] as the compound, how does the IC50 read?
Its IC50 is 2.1 nM.

With `Cn1cc(Nc2nc(N)cc(-c3cccc(-n4ccc5cc(C6CC6)cc(F)c5c4=O)c3CO)n2)cn1` [Example 2, 2-(3-{6-Amino-2-[ (1-methyl-1H-pyrazol-4-yl)amino]pyrimidin-4-yl}-2-(hydroxymethyl)phenyl)-6-cyclopropyl-8-fluoroisoquinolin-1 (2H)-one] as the compound, how does the IC50 read?
Its IC50 is 6.4 nM.

`Cn1cc(Nc2nc(N)cc(-c3cccc(-n4ccc5cc(C6CC6)cc(F)c5c4=O)c3CO)n2)cc1C#N` [Example 5, 4-({4-Amino-6-[3-(6-cyclo-propyl-8-fluoro-1-oxoiso-quinolin-2(1H)-yl)-2-(hydroxymethyl)phenyl]pyrimidin-2-yl}amino)-1-methyl-1H-pyrrole-2-carbonitrile] was tested. Which IC50 did it give?
The IC50 was 1.7 nM.

For `Cn1cc(Nc2nc(N)cc(-c3cccc(-n4ccc5cc(C(C)(C)C)cc(F)c5c4=O)c3CO)n2)cn1` [Example 7, 2-(3-{6-Amino-2-[(1-methyl-1H-pyrazol-4-yl)amino]pyrimidin-4-yl}-2-(hydroxymethyl)phenyl)-6-(tert-butyl)-8-fluoro-isoquinolin-1(2H)-one], which IC50 is on record?
The IC50 was 0.3 nM.

With `Nc1cc(-c2cccc(-n3ccc4cc(C5CC5)cc(F)c4c3=O)c2CO)nc(Nc2cnn(CC3CC3)c2)n1` [Example 8, 2-[3-(6-Amino-2-{[1-(cyclopropylmethyl)-1H-pyrazol-4-yl]amino}pyrimidin-4-yl)-2-(hydroxymethyl)phenyl]-6-cyclopropyl-8-fluoroisoquinolin-1(2H)-one] as the compound, how does the IC50 read?
The IC50 was 0.3 nM.

`Nc1cc(-c2cccc(-n3ccc4cc(C5CC5)cc(F)c4c3=O)c2CO)nc(Nc2cnn(C3CC3)c2)n1` [Example 9, 2-(3-{6-Amino-2-[(1-cyclopropyl-1H-pyrazol-4-yl)amino]pyrimidin-4-yl}-2-(hydroxymethyl)phenyl)-6-cyclopropyl-8-fluoroisoquinolin-1(2H)-one] was tested. Which IC50 did it give?
Its IC50 is 0.3 nM.

With `N#Cc1cc(Nc2nc(N)cc(-c3cccc(-n4ccc5cc(C6CC6)cc(F)c5c4=O)c3CO)n2)cn1C1CC1` [Example 10, 4-({4-Amino-6-[3-(6-cyclo-propyl-8-fluoro-1-oxoiso-quinolin-2(1H)-yl)-2-(hydroxymethyl)phenyl]pyrimidin-2-yl}amino)-1-cyclopropyl-1H-pyrrole-2-carbonitrile] as the compound, how does the IC50 read?
Its IC50 is 2.1 nM.

How did the IC50 turn out when `CN1CCN(c2ccc(Nc3nc(N)cc(-c4cccc(-n5ccc6cc(C7CC7)cc(F)c6c5=O)c4CO)n3)cc2)CC1` [Example 15, 2-[3-(6-Amino-2-{[4-(4-methylpiperazin-1-yl)phenyl]amino}pyrimidin-4-yl)-2-(hydroxymethyl)phenyl]-6-cyclopropyl-8-fluoroisoquinolin-1(2H)-one] was run?
The IC50 was 0.4 nM.

For `CC(=O)c1cc(Nc2nc(N)cc(-c3cccc(-n4ccc5cc(C6CC6)cc(F)c5c4=O)c3CO)n2)cn1C` [Example 17, 2-(3-{2-[(5-Acetyl-1-methyl-1H-pyrrol-3-yl)amino]-6-aminopyrimidin-4-yl}-2-(hydroxymethyl)phenyl)-6-cyclopropyl-8-fluoroiso-quinolin-1(2H)-one], which IC50 is on record?
The IC50 was 0.8 nM.

With `Nc1cc(-c2cccc(-n3ccc4cc(C5CC5)cc(F)c4c3=O)c2CO)nc(Nc2cn[nH]c2)n1` [Example 18, 2-(3-{2-[(1H-Pyrazol-4-yl)amino]-6-aminopyrimidin-4-yl}-2-(hydroxymethyl)phenyl)-6-cyclopropyl-8-fluoroiso-quinolin-1(2H)-one] as the compound, how does the IC50 read?
Its IC50 is 0.6 nM.

With `Cn1cc(Nc2nc(N)cc(-c3cccc(-n4ncc5cc(C6CC6)cc(F)c5c4=O)c3CO)n2)cn1` [Example 20, 2-(3-{6-Amino-2-[(1-methyl-1H-pyrazol-4-yl)amino]pyrimidin-4-yl}-2-(hydroxy-methyl)phenyl)-6-cyclopropyl-8-fluorophthalazin-1(2H)-one] as the compound, how does the IC50 read?
The IC50 was 0.6 nM.

With `Nc1cc(-c2cccc(-n3ncc4cc(C5CC5)cc(F)c4c3=O)c2CO)nc(Nc2cnn(C3CC3)c2)n1` [Example 21, 2-(3-{6-Amino-2-[(1-cyclo-propyl-1H-pyrazol-4-yl)amino]pyrimidin-4-yl}-2-(hydroxymethyl)phenyl)-6-cyclopropyl-8-fluoro-phthalazin-1(2H)-one] as the compound, how does the IC50 read?
Its IC50 is 0.4 nM.

How did the IC50 turn out when `Cn1cc(Nc2nc(N)cc(-c3ccnc(-n4ccc5cc(C6CC6)cc(F)c5c4=O)c3CO)n2)cn1` [Example 22, 2-(4-{6-Amino-2-[(1-methyl-1H-pyrazol-4-yl)amino]pyrimidin-4-yl}-3-(hydroxy-methyl)pyridin-2-yl)-6-cyclo-propyl-8-fluoroisoquinolin-1(2H)-one] was run?
The IC50 was 0.8 nM.

For `Cn1cc(Nc2nc(N)cc(-c3cccc(-n4ncc5cc(C6CC6)cc(F)c5c4=O)c3CO)n2)cc1C#N` [Example 24, 4-({4-Amino-6-[3-(6-cyclo-propyl-8-fluoro-1-oxo-phthalazin-2(1H)-yl)-2-(hydroxymethyl)phenyl]pyrimidin-2-yl}amino)-1-methyl-1H-pyrrole-2-carbonitrile], which IC50 is on record?
Its IC50 is 0.4 nM.

`Cn1cc(Nc2nc(N)cc(-c3cccc(-n4ccc5cc(C6(C)CC6)cc(F)c5c4=O)c3CO)n2)cn1` [Example 25, 2-(3-{6-Amino-2-[(1-methyl-1H-pyrazol-4-yl)amino]pyrimidin-4-yl}-2-(hydroxy-methyl)phenyl)-8-fluoro-6-(1-methylcyclopropyl) isoquinolin-1(2H)-one] was tested. Which IC50 did it give?
Its IC50 is 0.2 nM.
